Assay results: patent publication US10689378B2, “Triazolopyridine compounds and uses thereof” (Novartis AG, priority 2016, dated 2020)
Where two headings read alike, the source gives them in different places.

How the values were obtained:
EED (1-441)-His protein = target: T1, EED (1-441)-His protein (Homo sapiens, UniProt O75530); assay: EED-H3K27Me3 peptide competition binding assay by AlphaScreen
T1 construct: 30 nM EED (1-441)-His protein
In short: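 Serially diluted compound (12 points, 3-fold) incubated 20 min with 30 nM EED(1-441)-His and 15 nM biotin-H3K27Me3(19-33) peptide in 25 mM HEPES pH 8, 0.02% Tween-20, 0.5% BSA. Ni-chelate acceptor/streptavidin donor beads (10 μg/mL each) added, 1 h rt dark; 615 nm emission normalized to controls, dose-response fit for IC50.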

[1] = target: wild type PRC2 (wtPRC2) complex (Homo sapiens, UniProt O75530); assay: EED LC-MS assay (SAH production by PRC2); assay type: biochemical
In short: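 LC-MS/MS readout of SAH (d4-SAH standard) after TFA quench gives PRC2 activity, normalized to controls and fitted to dose-response for IC50. Reaction: 12 nM EZH2/SUZ12/EED/Rbap48/AEBP complex, 1 μM SAM, 1.5 μM H3[21-44] peptide, 120 min rt, 20 min compound preincubation.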

[2] = system: H3K27 methylation in G401 cell; assay: ELISA (H3K27 methylation) assay in G401 cells; assay type: cell-based, human; conditions: Homo sapiens
In short: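 IC50 from dose-response fit of percent inhibition relative to DMSO, using H3K27me3/me2 ELISA signal (ECL) normalized to histone H3. Histones HCl-extracted after 48 h compound exposure of G401 cells at up to 20 μM, 8- or 12-point 3-fold series.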

[3] = read-out: (a) IC50, EED Alphascreen binding Qualified
[4] = read-out: (b) IC50, EED LC-MS Qualified
[5] = G-401, read-out: (c) IC50, ELISA Qualified
[6] = EED-H3K27Me3 peptide competition, AlphaScreen, read-out: (a) IC50 EED Alphascreen binding Qualified
[7] = PRC2 LC-MS assay, read-out: (b) IC50 EED LC-MS Qualified
[8] = G-401, H3K27 methylation ELISA, read-out: (c) IC50 ELISA Qualified

T1 sequence (O75530 whole entry): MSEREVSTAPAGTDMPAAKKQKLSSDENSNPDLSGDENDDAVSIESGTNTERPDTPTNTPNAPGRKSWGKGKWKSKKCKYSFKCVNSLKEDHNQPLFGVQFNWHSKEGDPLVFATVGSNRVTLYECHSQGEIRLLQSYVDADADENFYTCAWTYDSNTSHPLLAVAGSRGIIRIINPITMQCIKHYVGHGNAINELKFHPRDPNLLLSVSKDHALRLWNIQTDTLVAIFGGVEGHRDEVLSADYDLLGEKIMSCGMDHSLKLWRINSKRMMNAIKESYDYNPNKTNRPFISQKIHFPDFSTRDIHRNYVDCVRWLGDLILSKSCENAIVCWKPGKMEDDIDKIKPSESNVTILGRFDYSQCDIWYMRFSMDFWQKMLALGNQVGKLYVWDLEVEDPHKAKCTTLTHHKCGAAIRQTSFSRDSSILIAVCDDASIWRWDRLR
Sequence of wild type PRC2 (wtPRC2) complex (O75530 whole entry): as above
Sequence of wild type PRC2 (wtPRC2) complex (Q15910 whole entry partner): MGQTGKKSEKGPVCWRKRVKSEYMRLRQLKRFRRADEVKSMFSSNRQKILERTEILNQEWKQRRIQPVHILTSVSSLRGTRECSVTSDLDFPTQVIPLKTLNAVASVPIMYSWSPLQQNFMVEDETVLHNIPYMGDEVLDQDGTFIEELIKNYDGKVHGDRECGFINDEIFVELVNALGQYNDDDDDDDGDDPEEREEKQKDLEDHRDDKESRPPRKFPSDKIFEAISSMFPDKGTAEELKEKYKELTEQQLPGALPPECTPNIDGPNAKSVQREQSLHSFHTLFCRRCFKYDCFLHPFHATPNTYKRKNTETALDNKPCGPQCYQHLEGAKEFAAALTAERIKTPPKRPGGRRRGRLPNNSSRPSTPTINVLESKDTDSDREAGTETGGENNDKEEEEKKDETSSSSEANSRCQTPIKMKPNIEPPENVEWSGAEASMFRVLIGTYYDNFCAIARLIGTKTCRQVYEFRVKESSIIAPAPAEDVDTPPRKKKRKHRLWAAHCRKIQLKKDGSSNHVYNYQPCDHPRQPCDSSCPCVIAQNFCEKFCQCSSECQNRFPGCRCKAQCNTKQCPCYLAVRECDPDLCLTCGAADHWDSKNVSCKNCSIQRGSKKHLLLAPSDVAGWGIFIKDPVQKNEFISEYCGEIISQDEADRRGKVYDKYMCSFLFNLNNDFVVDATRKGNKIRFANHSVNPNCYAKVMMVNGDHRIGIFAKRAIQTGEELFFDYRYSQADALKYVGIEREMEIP
Sequence of wild type PRC2 (wtPRC2) complex (Q15022 whole entry partner): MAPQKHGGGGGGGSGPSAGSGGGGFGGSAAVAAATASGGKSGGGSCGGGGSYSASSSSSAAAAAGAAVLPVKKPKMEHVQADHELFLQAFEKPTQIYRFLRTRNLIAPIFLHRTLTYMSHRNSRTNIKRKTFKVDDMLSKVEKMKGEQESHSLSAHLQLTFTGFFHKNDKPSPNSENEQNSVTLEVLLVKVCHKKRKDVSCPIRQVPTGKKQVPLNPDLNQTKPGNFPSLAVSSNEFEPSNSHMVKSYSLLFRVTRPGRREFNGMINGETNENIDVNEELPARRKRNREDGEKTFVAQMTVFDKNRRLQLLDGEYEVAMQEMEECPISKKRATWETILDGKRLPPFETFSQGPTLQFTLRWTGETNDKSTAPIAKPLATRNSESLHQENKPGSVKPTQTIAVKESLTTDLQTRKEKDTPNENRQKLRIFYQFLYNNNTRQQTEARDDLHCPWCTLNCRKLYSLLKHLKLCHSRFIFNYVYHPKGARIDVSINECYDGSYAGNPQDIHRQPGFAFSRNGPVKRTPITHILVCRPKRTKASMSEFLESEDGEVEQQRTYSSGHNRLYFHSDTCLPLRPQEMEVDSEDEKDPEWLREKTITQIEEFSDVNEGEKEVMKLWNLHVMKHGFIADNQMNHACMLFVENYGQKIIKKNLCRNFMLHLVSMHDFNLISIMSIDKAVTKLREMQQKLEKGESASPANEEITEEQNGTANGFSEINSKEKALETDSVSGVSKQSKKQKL
Sequence of wild type PRC2 (wtPRC2) complex (Q09028 whole entry partner): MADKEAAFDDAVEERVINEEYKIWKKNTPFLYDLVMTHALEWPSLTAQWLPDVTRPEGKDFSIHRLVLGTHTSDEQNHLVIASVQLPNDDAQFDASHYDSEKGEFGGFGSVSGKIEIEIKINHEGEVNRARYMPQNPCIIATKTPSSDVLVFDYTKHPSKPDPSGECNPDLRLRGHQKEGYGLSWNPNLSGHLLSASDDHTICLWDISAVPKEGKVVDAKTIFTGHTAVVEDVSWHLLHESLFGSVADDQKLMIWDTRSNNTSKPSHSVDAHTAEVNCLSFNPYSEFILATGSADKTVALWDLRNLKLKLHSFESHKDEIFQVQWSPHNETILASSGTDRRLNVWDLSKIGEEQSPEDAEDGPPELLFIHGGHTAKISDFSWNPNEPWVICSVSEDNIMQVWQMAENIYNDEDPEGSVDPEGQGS
Sequence of wild type PRC2 (wtPRC2) complex (Q6ZN18 whole entry partner): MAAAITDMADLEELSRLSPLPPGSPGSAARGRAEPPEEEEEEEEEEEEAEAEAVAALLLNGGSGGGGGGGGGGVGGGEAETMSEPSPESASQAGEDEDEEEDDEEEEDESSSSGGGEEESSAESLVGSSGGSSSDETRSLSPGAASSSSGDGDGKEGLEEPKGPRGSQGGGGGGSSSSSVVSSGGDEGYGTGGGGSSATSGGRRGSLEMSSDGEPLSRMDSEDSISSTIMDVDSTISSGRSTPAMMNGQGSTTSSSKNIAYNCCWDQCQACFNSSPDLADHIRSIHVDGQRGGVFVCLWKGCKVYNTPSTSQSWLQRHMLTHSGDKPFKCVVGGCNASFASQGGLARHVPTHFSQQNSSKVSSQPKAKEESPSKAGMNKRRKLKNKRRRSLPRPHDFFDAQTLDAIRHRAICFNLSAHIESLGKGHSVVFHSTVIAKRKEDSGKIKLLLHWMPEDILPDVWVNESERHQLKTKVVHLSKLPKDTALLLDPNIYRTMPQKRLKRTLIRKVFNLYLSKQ

| SMILES | IC50 (EED (1-441)-His protein; [3]) | IC50 [1, 4] | IC50 [2, 5] | IC50 (EED (1-441)-His protein; [6]) | IC50 [1, 7] | IC50 [2, 8] |
| --- | --- | --- | --- | --- | --- | --- |
| COc1cccc(F)c1CNc1ccc(-c2cccnc2F)c2nncn12 [Example 166, N-(2-fluoro-6-methoxybenzyl)-8-(2-fluoropyridin-3-yl)-[1,2,4]triazolo[4,3-a]pyridin-5-amine] | 25.2 nM | 20.4 nM | 33.3 nM |  |  |  |
| COc1cccc(F)c1CNc1ccc(-c2cncc(N3CCCC3=O)c2)c2nncn12 [Example 167, 1-(5-(5-((2-fluoro-6-methoxybenzyl)amino)-[1,2,4]triazolo[4,3-a]pyridin-8-yl)pyridin-3-yl)pyrrolidin-2-one] | 13.4 nM | 679 nM | 10.3 nM |  |  |  |
| COc1ccccc1CNc1ccc(-c2ccc(N3CC(C)N(C)CC3C)nc2)c2nncn12 (stereo not drawn) [Example 168, N-(2-methoxybenzyl)-8-(6-(2,4,5-trimethylpiperazin-1-yl)pyridin-3-yl)-[1,2,4] triazolo[4,3-a]pyridin-5-amine] | 50.5 nM | 168 nM | 105 nM |  |  |  |
| COc1cccc(F)c1CNc1ccc(-c2ccc(OCCS(C)(=O)=O)cc2)c2nncn12 [Example 169, N-(2-fluoro-6-methoxybenzyl)-8-(4-(2-(methylsulfonyl)ethoxy)phenyl)-[1,2,4]triazolo[4,3-a] pyridin-5-amine] | 84.5 nM | 305 nM | 105 nM |  |  |  |
| COc1cccc(F)c1CNc1ccc(-c2c(C)nn(CCO)c2C)c2nncn12 [Example 170, 2-(4-(5-((2-fluoro-6-methoxybenzyl)amino)-[1,2,4]triazolo[4,3-a]pyridin-8-yl)-3,5-dimethyl-1H-pyrazol-1-yl)ethanol] | 25.8 nM | 67.2 nM | 18.6 nM |  |  |  |
| COc1cccc(F)c1CNc1ccc(-c2ccc(N3CCOCC3)nc2)c2nncn12 [Example 172, N-(2-fluoro-6-methoxybenzyl)-8-(6-morpholinopyridin-3-yl)-[1,2,4]triazolo [4,3-a]pyridin-5-amine] |  |  |  | 56.4 nM | 162 nM | 111 nM |
| COc1ccc(-c2ccc(NCc3c(F)cccc3OC)n3cnnc23)cn1 [Example 173, N-(2-fluoro-6-methoxybenzyl)-8-(6-methoxypyridin-3-yl)-[1,2,4]triazolo [4,3-a]pyridin-5-amine] |  |  |  | 36.3 nM | 123 nM | 40.3 nM |
| COc1cccc(F)c1CNc1ccc(-c2ccc(N(C)C)nc2)c2nncn12 [Example 174, 8-(6-(dimethylamino)pyridin-3-yl)-N-(2-fluoro-6-methoxybenzyl)-[1,2,4]triazolo[4,3-a] pyridin-5-amine] |  |  |  | 47.2 nM | 136 nM | 76.7 nM |
| COc1cccc(F)c1CNc1ccc(-c2ccnc(CCO)c2)c2nncn12 [Example 175, 2-(4-(5-((2-fluoro-6-methoxybenzyl)amino)-[1,2,4]triazolo[4,3-a]pyridin-8-yl)pyridin-2-yl)ethanol] |  |  |  | 35.9 nM | 148 nM | 23.9 nM |
| COc1cccc(F)c1CNc1ccc(-c2cccnc2OC)c2nncn12 [Example 176, N-(2-fluoro-6-methoxybenzyl)-8-(2-methoxypyridin-3-yl)-[1,2,4]triazolo [4,3-a]pyridin-5-amine] |  |  |  | 32.9 nM | 176 nM | 58.6 nM |
| COc1cccc(F)c1CNc1ccc(-c2ccc(S(C)(=O)=O)cc2F)c2nncn12 [Example 177, 8-(2-fluoro-4-(methylsulfonyl)phenyl)-N-(2-fluoro-6-methoxybenzyl)-[1,2,4]triazolo[4,3-a]pyridin-5-amine] |  |  |  | 15.8 nM | 32.3 nM | 12.3 nM |
| COc1cccc(F)c1CNc1ccc(-c2ccc(C(=O)N(C)C)cc2F)c2nncn12 [Example 178, 3-fluoro-4-(5-((2-fluoro-6-methoxybenzyl)amino)-[1,2,4]triazolo[4,3-a]pyridin-8-yl)-N,N-dimethyl benzamide] |  |  |  | 6.5 nM | 18.8 nM | 6.5 nM |
| COc1cccc(F)c1CNc1ccc(-c2ccc(S(=O)(=O)C3CCNCC3)nc2)c2nncn12 [Example 179, N-(2-fluoro-6-methoxybenzyl)-8-(6-(piperidin-4-ylsulfonyl)pyridin-3-yl)-[1,2,4]triazolo[4,3-a]pyridin-5-amine] |  |  |  | 24.8 nM | 174 nM | 13.2 nM |
| COc1ccccc1CNc1ccc(-c2ccc(N3CCN(C)CC3C)nc2)c2nncn12 (stereo not drawn) [Example 180, 8-(6-(2,4-dimethylpiperazin-1-yl)pyridin-3-yl)-N-(2-methoxybenzyl)-[1,2,4] triazolo[4,3-a]pyridin-5-amine] |  |  |  | 55.7 nM | 171 nM | 57.9 nM |
| COc1cccc(F)c1CNc1ccc(-c2cnccc2F)c2nncn12 [Example 181, N-(2-fluoro-6-methoxybenzyl)-8-(4-fluoropyridin-3-yl)-[1,2,4]triazolo[4,3-a] pyridin-5-amine] |  |  |  | 11.2 nM | 44.2 nM | 11.4 nM |
| CNC(=O)c1cncc(-c2ccc(NCc3c(F)cccc3OC)n3cnnc23)c1 [Example 182, 5-(5-((2-fluoro-6-methoxybenzyl)amino)-[1,2,4]triazolo[4,3-a]pyridin-8-yl)-N-methylnicotinamide] |  |  |  | 20.4 nM | 520 nM | 16.5 nM |
| COc1cccc(F)c1CNc1ccc(-c2ccc(CCO)nc2)c2nncn12 [Example 183, 2-(5-(5-((2-fluoro-6-methoxybenzyl)amino)-[1,2,4]triazolo[4,3-a]pyridin-8-yl)pyridin-2-yl)ethanol] |  |  |  | 19.9 nM | 41.6 nM | 17.3 nM |
| COc1cccc(F)c1CNc1ccc(-c2cnc(S(C)(=O)=O)cc2C)c2nncn12 [Example 184, N-(2-fluoro-6-methoxybenzyl)-8-(4-methyl-6-(methylsulfonyl)pyridin-3-yl)-[1,2,4]triazolo[4,3-a] pyridin-5-amine] |  |  |  | 46.4 nM | 77.7 nM | 25 nM |
| COc1cccc(F)c1CNc1ccc(-c2ccc(S(C)(=O)=O)nc2C)c2nncn12 [Example 185, N-(2-fluoro-6-methoxybenzyl)-8-(2-methyl-6-(methylsulfonyl)pyridin-3-yl)-[1,2,4]triazolo[4,3-a] pyridin-5-amine] |  |  |  | 7.9 nM | 18.5 nM | 3.6 nM |
| COc1cccc(F)c1CNc1ccc(-c2cn(C)nc2C)c2nncn12 [Example 186, 8-(1,3-dimethyl-1H-pyrazol-4-yl)-N-(2-fluoro-6-methoxybenzyl)-[1,2,4]triazolo[4,3-a] pyridin-5-amine] |  |  |  | 65.9 nM | 14 nM | 40.9 nM |
| COc1cccc(F)c1CNc1ccc(-c2c(C)n[nH]c2C)c2nncn12 [Example 187, 8-(3,5-dimethyl-1H-pyrazol-4-yl)-N-(2-fluoro-6-methoxybenzyl)-[1,2,4]triazolo[4,3-a] pyridin-5-amine] |  |  |  | 41.6 nM | 172 nM | 52.8 nM |
| COc1cccc(F)c1CNc1ccc(-c2cnn(C)c2C)c2nncn12 [Example 188, 8-(1,5-dimethyl-1H-pyrazol-4-yl)-N-(2-fluoro-6-methoxybenzyl)-[1,2,4]triazolo[4,3-a] pyridin-5-amine] |  |  |  | 55.2 nM | 93.1 nM | 34.8 nM |
| COc1cccc(F)c1CNc1ccc(-c2c[nH]nc2C)c2nncn12 [Example 189, N-(2-fluoro-6-methoxybenzyl)-8-(3-methyl-1H-pyrazol-4-yl)-[1,2,4] triazolo[4,3-a]pyridin-5-amine] |  |  |  | 53.6 nM | 71.1 nM | 56.4 nM |
